{"source": "patent US12377118B2", "about": "“Nanoparticle constructs for systemic co-delivery of anti-tumor agents” (CASE WESTERN RESERVE UNIVERSITY, priority 2019, dated 2025)", "origin": "cited, not measured here", "tested_on": "4T1 orthotopic mammary tumor", "settings": "i.t."}
{"smiles": "Nc1nc2c(ncn2[C@@H]2O[C@@H]3COP(=O)(O)O[C@H]4[C@@H](O)[C@H](n5cnc6c(=O)[nH]c(N)nc65)O[C@@H]4COP(=O)(O)O[C@H]3[C@H]2O)c(=O)[nH]1", "note": "[free cdGMP, cyclic diguanylate monophosphate]", "values": [{"measurement": "dose needed to regress early 4T1 primary tumors", "result": "up to 50 μg"}]}
